A value given as a limit tells only on which side of the number the result lay.

The text below walks through data of patent US10899747B2, “Biaryl piperidine amide compounds and methods of use thereof” (Athenex, Inc., priority 2017, dated 2021).

Common to all, as to assay type: cell-based
Test [1] concerns NFAT. In words: TCR-NFAT (luciferase-based reporter assay). The conditions noted are these: Homo sapiens; 50% inhibition concentration class. Here is the method: Jurkat T cells are transiently transfected with a DNA plasmid encoding Firefly luciferase under the transcriptional control of an appropriate regulatory element that may include multimerized NFAT, AP-1, NFκB, or CREB binding sites. Cells are co-transfected with a DNA plasmid encoding Renilla luciferase under the transcriptional control of a constitutive regulatory element (e.g., HSV-TK promoter). 24 hours following transfection, cells are collected and re-seeded in 96-well plates at a final density of 1.0×10^6 cells/ml in 150 ul assay medium. Test compounds may be included at a final concentration of ≤20 uM and generally pre-incubated with cells for 30 minutes prior to stimulation. An appropriate stimulus is added, including but not limited to, a) phorbol myristate acetate (PMA) and ionomycin, or b) stimulatory antibodies to the TCR complex (e.g., anti-CD3ε) and CD28. Cell cultures are stimulated for 4-6 hours in a humidified incubator (37 degrees C./5% CO2). Cells are than lysed and the level of Firefly luciferase and Renilla Luciferase activity is determined using a standard assay (e.g., Promega's Dual Luciferase Reporter Assay System) and plate-reading luminometer. The ratio obtained by dividing activation induced Firefly luciferase activity by the constitutive Renilla luciferase activity is calculated and used as a quantitative measurement of cell activation.
(§1) Jurkat T cells were transiently transfected with a DNA plasmid encoding Firefly luciferase under the transcriptional control of an appropriate regulatory element that may include multimerized NFAT, AP-1, NFκB, or CREB binding sites. Cells were co-transfected with a DNA plasmid encoding Renilla luciferase under the transcriptional control of a constitutive regulatory element (e.g., HSV-TK promoter). 24 hours following transfection, cells were collected and re-seeded in 96-well plates at a final density of 1.0×10^6 cells/ml in 150 ul assay medium. Compound 413 was included at a final concentration of ≤20 uM and pre-incubated with cells for 30 minutes prior to stimulation. Mitogens PMA and ionomycin were added. Cell cultures were stimulated for 4-6 hours in a humidified incubator (37° C./5% CO2). Cells were then lysed and the level of Firefly luciferase and Renilla Luciferase activity was determined using a standard assay (e.g., Promega's Dual Luciferase Reporter Assay System) and plate-reading luminometer. The ratio obtained by dividing activation induced Firefly luciferase activity by the constitutive Renilla luciferase activity was calculated and used as a quantitative measurement of cell activation.

In test [2] the test system is IL-2. In words: PHA-IL2 (cell activation and cytokine analysis). The conditions noted are these: 50% inhibition concentration class. An outline of the steps:
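Cells were seeded in 96-well plates at 1.0-2.0×10^6 cells/ml in 150 ul of RPMI containing 0.5% fetal calf serum. Test compounds, at up to ≤20 uM, were preincubated with the cells for 30 minutes, then phytohemagglutinin (PHA) was added and cultures were stimulated for 24-48 hours at 37 degrees C./5% CO2. Supernatant IL-2 was then quantified by standard ELISA.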

Test [3] concerns IL-2. The test can be described thus: IL-2 secretion by ELISA in Jurkat T cells stimulated with PMA and ionomycin. The conditions noted are these: Homo sapiens, supernatants harvested at 20 hours, read-out: concentration required to achieve 50% inhibition (IC50) of IL-2. How it is done:
Jurkat (a transformed human T cell leukemia) cells were plated in 96-well plates at a final density of 1.0-2.0×10^6 cells/ml in 150 ul of assay medium (RPMI+0.5% fetal calf serum). Compounds 403 and 413 were included at a final concentration of ≤20 uM and pre-incubated with cells for 30 minutes prior to stimulation. Mitogens PMA and ionomycin were added to the T cell receptor (TCR) complex (e.g., anti-CD3c) and CD28. Cell cultures were stimulated for 24-48 hours in a humidified incubator (37 degrees C./5% CO2). A fraction of the culture supernatant was then harvested from each well and assayed for the presence of appropriate cytokine using standard ELISA. Cytokines analyzed was IL-2. If required, the number of cytokine producing cells can be determined using intracellular staining and flow cytometry.
More specifically, Jurkat T cells were stimulated with the mitogens PMA and ionomycin in the presence of varying concentrations of compound 403 or compound 413. Supernatants were harvested at 20 hours and analyzed for IL-2 content by ELISA. IL-2 values obtained from vehicle (DMSO) treated control wells (˜2800 pg/ml) were assigned a value of 100% and used to calculate the % inhibition achieved for each compound.

Test [4] concerns NFAT. The test can be described thus: NFAT-dependent Firefly luciferase reporter assay in Jurkat T cells stimulated with PMA and ionomycin. The conditions noted are these: Homo sapiens, PMA and ionomycin for 6 hours, read-out: concentration required to achieve 50% inhibition (IC50) of NFAT-dependent luciferase activity. Here is the method:
as §1, with “Mitogens PMA and ionomycin were added. Cell cultures were stimulated for 4-6 hours in a humidified incubator (37° C./5% CO2).” left out
More specifically, Jurkat T cells were co-transfected with a NFAT-dependent Firefly Luciferase reporter plasmid and a control Renilla Luciferase reporter plasmid. […] Lysates were prepared and analyzed for luciferase activity using the Dual Luciferase Reporter Assay System (Promega). […]

On to `COC(=O)c1ccc(CCC2CCN(C(=O)COc3ccccc3-c3ccccc3)CC2)cc1` [Compound 101], for which the IC50 with NFAT [1] and in the test on IL-2 [2] was under 1 µM each time.

Take `O=C(COc1ccccc1-c1ccccc1)N1CCC(CCc2cc(F)c(O)c(F)c2)CC1` [Compound 124]: the results for the IC50 in the test with NFAT [1] and in the test on IL-2 [2] were 10 to 50 µM and under 1 µM, respectively.

In the case of `O=C(/C=C/c1cc2c(cc1-c1ccccc1)OCO2)N1CCC(CCc2ccc(O)cc2)CC1` [Compound 111], the IC50 in the test on NFAT [1] and in the test with IL-2 [2] was 1 to 10 µM throughout.

For the compound `O=C(COc1ccccc1-c1ccccc1)N1CCC(CCc2ccc3c(c2)OCCO3)CC1` [Compound 114], the IC50 in the test on NFAT [1] was 1 to 10 µM; with IL-2 [2], under 1 µM.

For the compound `COc1ccc(CCC2CCN(C(=O)COc3cccnc3-c3ccccc3)CC2)cc1OC` [Compound 141], the IC50 was 10 to 50 µM in the test on NFAT [1] and 1 to 10 µM in the test with IL-2 [2].

Consider `O=C(COc1ccccc1-c1ccccc1O)N1CCC(CCc2ccc3c(c2)OCO3)CC1` [Compound 169], for which the IC50 in the test with NFAT [1] and in the test with IL-2 [2] was under 1 µM throughout.

For `CC(C)Oc1cccc(CCC2CCN(C(=O)COc3ccccc3-c3ccc(C#N)cc3)CC2)c1` [Compound 403], the IC50 is under 1 µM in the test with IL-2 [2] and 0.068 µM with IL-2 [3].

In the case of `O=C(COc1ccccc1-c1ccccc1)N1CCC(CCc2ccc3c(c2)OCO3)CC1` [Compound 105], the IC50 in the test on NFAT [1] is 1 to 10 µM; in the test with IL-2 [2] it was under 1 µM.

Compound `COCc1ccc(CCC2CCN(C(=O)COc3ccccc3-c3ccccc3)CC2)cc1` [Compound 146] gave an IC50 with NFAT [1] of 1 to 10 µM.

`CC(C)(C)NC(=O)c1ccc(CCC2CCN(C(=O)COc3ccccc3-c3ccccc3)CC2)cc1` [Compound 149] came in with an IC50 in the test with NFAT [1] of 1 to 10 µM.

Take `O=C(COc1ccccc1-c1ccccc1)N1CCC(CCc2ccc(O)cc2)CC1` [Compound 100]: the IC50 is 1 to 10 µM in the test with NFAT [1] and under 1 µM in the test on IL-2 [2].

Consider `O=C(COc1c(F)cccc1-c1ccccc1)N1CCC(CCc2ccc(F)cc2)CC1` [Compound 136], for which the IC50 in the test on NFAT [1] is 10 to 50 µM.

In the test with NFAT [1], `O=C(COc1cc(OC(F)(F)F)ccc1-c1ccccc1)N1CCC(CCc2ccc3c(c2)OCO3)CC1` [Compound 150] had an IC50 of 10 to 50 µM.

Take `CN(C)C(=O)c1ccc(CCC2CCN(C(=O)COc3ccccc3-c3ccccc3)CC2)cc1` [Compound 147]: the IC50 in the test with NFAT [1] lay within 1 to 10 µM.

Regarding `O=C(NCc1ccncc1)c1ccc(CCC2CCN(C(=O)COc3ccccc3-c3ccccc3)CC2)cc1` [Compound 104], the IC50 with NFAT [1] was in the range of 1 to 10 µM.

As for `O=C(COc1ccccc1-c1ccccc1)N1CCC(CCc2ccccc2)CC1` [Compound 118], the IC50 in the test with NFAT [1] lay in the range of 10 to 50 µM; in the test on IL-2 [2], 1 to 10 µM.

For `O=C(COc1ccccc1-c1ccccc1)N1CCC(CCc2cccc(CO)c2)CC1` [Compound 131], the IC50 in the test with NFAT [1] was 10 to 50 µM.

`CC(C)NC(=O)c1ccc(CCC2CCN(C(=O)COc3ccccc3-c3ccccc3)CC2)cc1` [Compound 148]: the IC50 in the test with NFAT [1] and in the test with IL-2 [2] was 1 to 10 µM throughout.

As to `O=C(NCc1cccnc1)c1ccc(CCC2CCN(C(=O)COc3ccccc3-c3ccccc3)CC2)cc1` [Compound 103], in the test with NFAT [1], the IC50 was 1 to 10 µM.

`O=C(COc1cc(F)c(F)cc1-c1ccccc1)N1CCC(CCc2cc(F)cc(F)c2)CC1` [Compound 143] had an IC50 in the test on NFAT [1] of 10 to 50 µM.

For `CC(C)Oc1cccc(CCC2CCN(C(=O)COc3ccc(C#N)cc3-c3ccc(C#N)cc3)CC2)c1` [Compound 413], the IC50 in the test on NFAT [4] is 0.009 µM; in the test on IL-2 [2] it was under 1 µM; in the test with IL-2 [3], 0.018 µM.

For the compound `COc1ccc(CO)cc1CCC1CCN(C(=O)COc2ccccc2-c2ccccc2)CC1` [Compound 125], in the test with NFAT [1], the IC50 lay in the range of 10 to 50 µM.
